The values that follow come from patent publication US12600728B2, “Interleukin-17 inhibitors” (priority 2020, dated 2026).

Like-named read-outs stand apart in the source and are kept apart here.

The target of assay [1] is recombinant human IL-17AA (Homo sapiens, UniProt Q16552). The assay can be described thus: IL-6 release from NHDF cells, IL-17AA plus TNF-α stimulation. The format is cell-based. To be noted: 24 hours, IL-6 by ELISA. The method in brief: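 IL-17-specific IL-6 release from NHDF cells adhered overnight; compounds pre-incubated 30 min at room temperature with human IL-17AA plus TNF-α, then 24 h on cells at 37° C. Final DMSO 0.1% or plasma 20%; IL-6 by ELISA (450 nm). TNF-α-only IL-6 subtracted before IC50 fit.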

Assay [2] has as its target biotinylated human IL-17A / AF647-labeled human IL-17RA (Homo sapiens, UniProt Q16552). The assay can be described thus: Human IL-17A×IL-17RA TR-FRET assay. The assay is classed as binding. The method in brief:
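Compounds tested in duplicate at each concentration; neutral controls contain all components with DMSO in place of compound.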

Setting [3] is: NHDF cells, IL-17AA 30 pM plus TNF-α 6 pM, read-out: IL17AA + TNF IC50 IL-6.
[4] abbreviates: TR-FRET, biotinylated human IL-17A 5 nM, AF647-labeled human IL-17RA 30 nM, read-out: IL17AA FRET/ IL17Rawt IC50.
[5] abbreviates: NHDF cells, IL-17AA 30 pM + TNF-α 6 pM, read-out: IL17AA + TNF IC50 IL-6.
Where [6] appears, read: TR-FRET, 5 nM IL-17A, 30 nM IL-17RA, read-out: IL17AA FRET/ IL17Rawt IC50.

recombinant human IL-17AA, sequence (Q16552 24-155): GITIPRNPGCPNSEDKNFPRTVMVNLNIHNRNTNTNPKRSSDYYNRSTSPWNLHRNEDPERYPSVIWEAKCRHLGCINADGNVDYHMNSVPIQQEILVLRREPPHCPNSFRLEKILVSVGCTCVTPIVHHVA
biotinylated human IL-17A / AF647-labeled human IL-17RA, sequence (Q16552 24-155): as above

`CCc1nocc1C(=O)N[C@H](C(=O)Nc1ccc(-c2c(C)cc[n+]([O-])c2C)cc1)C1CCC(F)(F)CC1` [Example 31, (S)-3-(4-(2-(4,4-difluorocyclohexyl)-2-(3-ethylisoxazole-4-carboxamido)acetamido)phenyl)-2,4-dimethylpyridine 1-oxide]: the IC50 in assay [1] (setting [3]) was 15 nM; in assay [2] (setting [4]), 114 nM.

As for `Cc1c(-c2ccc(NC(=O)[C@@H](NC(=O)c3ccc4n3CCN(C)C4)C3CCC(F)(F)CC3)cc2)c(Cl)cc[n+]1[O-]` [Example 123, (S)-4-chloro-3-(4-(2-(4,4-difluorocyclohexyl)-2-(2-methyl-1,2,3,4-tetrahydropyrrolo[1,2-a]pyrazine-6-carboxamido)acetamido)phenyl)-2-methylpyridine 1-oxide], the IC50 was 59 nM in assay [1] (setting [3]) and 150 nM in assay [2] (setting [4]).

As for `Cc1c(-c2ccc(NC(=O)[C@@H](NC(=O)c3ccc4n3CCN(C)C4)C3CCCCC3)cc2F)ccc[n+]1[O-]` [Example 126, (S)-3-(4-(2-cyclohexyl-2-(2-methyl-1,2,3,4-tetrahydropyrrolo[1,2-a]pyrazine-6-carboxamido)acetamido)-2-fluorophenyl)-2-methylpyridine 1-oxide], the IC50 stood at 62 nM in assay [1] (setting [3]) and 228 nM in assay [2] (setting [4]).

In the case of `Cc1cc[n+]([O-])c(C)c1-c1ccc(NC(=O)[C@@H](NC(=O)c2ccoc2C)C2CCCCC2)cc1` [Example 53, (S)-3-(4-(2-cyclohexyl-2-(2-methylfuran-3-carboxamido)acetamido)phenyl)-2,4-dimethylpyridine 1-oxide], the IC50 in assay [1] (setting [3]) is 86 nM; in assay [2] (setting [4]), 16 nM.

Consider `COCCn1nccc1C(=O)N[C@H](C(=O)Nc1ccc(-c2c(Cl)cc[n+]([O-])c2C)c(F)c1)C1CCCCC1` [Example 15, 4-chloro-3-(4-((S)-2-cyclohexyl-2-(1-(2-methoxyethyl)-1H-pyrazole-5-carboxamido)acetamido)-2-fluorophenyl)-2-methylpyridine 1-oxide], for which the IC50 in assay [1] (setting [3]) worked out at 10 nM; in assay [2] (setting [4]) it was 52 nM.

As to `Cc1ccnc(C)c1-c1ccc(NC(=O)[C@@H](NC(=O)c2ccnn2C)[C@H]2CCCc3ccccc32)cc1` [compound 136, N—((S)-2-((4-(2,4-dimethylpyridin-3-yl)phenyl)amino)-2-oxo-1-((S)-1,2,3,4-tetrahydronaphthalen-1-yl)ethyl)-1-methyl-1H-pyrazole-5-carboxamide, reference compound], the IC50 in assay [1] (NHDF cells, IL-17AA 30 pM + TNF-α 6 pM, reference examples (pyridines), read-out: IL 17AA + TNF IC50 IL-6) was 50 nM; in assay [2] (TR-FRET, 5 nM IL-17A, 30 nM IL-17RA, reference examples (pyridines), read-out: IL17AA FRET/ IL17RAwt IC50) it was 117 nM.

As to `Cc1cc[n+]([O-])c(C)c1-c1ccc(NC(=O)[C@H](Cc2ccccc2)NC(=O)c2conc2C)cc1` [Example 74, (S)-2,4-dimethyl-3-(4-(2-(3-methylisoxazole-4-carboxamido)-3-phenylpropanamido)phenyl)pyridine 1-oxide], the IC50 in assay [1] (setting [3]) is > 10000 nM; in assay [2] (setting [4]), 1530 nM.

With `Cc1c(-c2ccc(NC(=O)[C@@H](NC(=O)c3ccnn3C)C3CCCCC3)cc2F)c(Cl)cc[n+]1[O-]` [Example 2, 4-chloro-3-(4-((S)-2-cyclohexyl-2-(1-methyl-1H-pyrazole-5-carboxamido)acetamido)-2-fluorophenyl)-2-methylpyridine 1-oxide], the values for the IC50 in assay [1] (setting [3]) and in assay [2] (setting [4]) were 15 nM and 24 nM, respectively.

As for `CC(=O)N1CCn2c(ccc2C(=O)N[C@H](C(=O)Nc2ccc(-c3c(Cl)cc[n+]([O-])c3C)cc2F)C2CCCCC2)C1` [Example 184, (S)-3-(4-(2-(2-acetyl-1,2,3,4-tetrahydropyrrolo[1,2-a]pyrazine-6-carboxamido)-2-cyclohexylacetamido)-3-fluorophenyl)-4-chloro-2-methylpyridine 1-oxide], the IC50 was 11 nM in assay [1] (setting [5]) and 59.9 nM in assay [2] (setting [6]).

On to `CCn1nccc1C(=O)N[C@H](C(=O)Nc1ccc(-c2c(C(F)(F)F)cc[n+]([O-])c2C)cc1)[C@H]1CCCC(F)(F)C1` [Example 10, 3-(4-((S)-2-((S)-3,3-difluorocyclohexyl)-2-(1-ethyl-1H-pyrazole-5-carboxamido)acetamido)phenyl)-2-methyl-4-(trifluoromethyl)pyridine 1-oxide], for which the IC50 in assay [1] (setting [3]) stood at 11 nM; in assay [2] (setting [4]), 93 nM.

With `CCn1nccc1C(=O)N[C@H](C(=O)Nc1ccc(-c2c(C(F)(F)F)cc[n+]([O-])c2C)cc1)C1CCC(F)(F)CC1` [Example 11, (S)-3-(4-(2-(4,4-difluorocyclohexyl)-2-(1-ethyl-1H-pyrazole-5-carboxamido)acetamido)phenyl)-2-methyl-4-(trifluoromethyl)pyridine 1-oxide], the IC50 in assay [1] (setting [3]) came to 20 nM; in assay [2] (setting [4]), 82 nM.

On to `Cc1cc(-c2ccc(NC(=O)[C@@H](NC(=O)c3conc3C)C3CCC(F)(F)CC3)cc2)c(C)[n+]([O-])c1` [Example 169, (S)-3-(4-(2-(4,4-difluorocyclohexyl)-2-(3-methylisoxazole-4-carboxamido)acetamido)phenyl)-2,5-dimethylpyridine 1-oxide], for which the IC50 was determined as 339 nM in assay [1] (setting [5]) and 391 nM in assay [2] (setting [6]).

As to `Cc1cc[n+]([O-])c(C)c1-c1ccc(NC(=O)C(NC(=O)c2ccc3n2CCNC3)C2CC3CC3C2)cc1` [Example 201, 3-(4-((S)-2-((1R,3r,5S)-bicyclo[3.1.0]hexan-3-yl)-2-(1,2,3,4-tetrahydropyrrolo[1,2-a]pyrazine-6-carboxamido)acetamido)phenyl)-2,4-dimethylpyridine 1-oxide], the IC50 worked out at 61 nM in assay [1] (setting [5]) and 252 nM in assay [2] (setting [6]).

As to `CCc1nocc1C(=O)NC(C(=O)Nc1ccc(-c2c(Cl)cc[n+]([O-])c2C)cc1)C1CCC(C(F)(F)F)CC1` [Example 4, 4-chloro-3-(4-((S)-2-(3-ethylisoxazole-4-carboxamido)-2-((1r,4S)-4-(trifluoromethyl)cyclohexyl)acetamido)phenyl)-2-methylpyridine 1-oxide], the IC50 in assay [1] (setting [3]) is 12 nM; in assay [2] (setting [4]) it was 26 nM.

`Cc1cc[n+]([O-])c(C)c1-c1ccc(NC(=O)[C@H](Cc2ccccc2Cl)NC(=O)c2ccnn2C)cc1` [Example 180, (S)-3-(4-(3-(2-chlorophenyl)-2-(1-methyl-1H-pyrazole-5-carboxamido)propanamido)phenyl)-2,4-dimethylpyridine 1-oxide]: the IC50 is 372 nM in assay [1] (setting [5]) and 52 nM in assay [2] (setting [6]).

Consider `Cc1cc[n+]([O-])c(C)c1-c1ccc(NC(=O)[C@@H](NC(=O)c2ccc3n2CCN(C)C3)C2CCCCCC2)nc1` [Example 149, (S)-6′-(2-cycloheptyl-2-(2-methyl-1,2,3,4-tetrahydropyrrolo[1,2-a]pyrazine-6-carboxamido)acetamido)-2,4-dimethyl-[3,3′-bipyridine] 1-oxide], for which the IC50 in assay [1] (setting [5]) was 59 nM; in assay [2] (setting [6]) it was 118 nM.

As for `Cc1c(-c2ccc(NC(=O)[C@@H](NC(=O)c3ccnn3C)C3CCCCC3)cc2F)cc(Cl)c[n+]1[O-]` [Example 92, (S)-5-chloro-3-(4-(2-cyclohexyl-2-(1-methyl-1H-pyrazole-5-carboxamido)acetamido)-2-fluorophenyl)-2-methylpyridine 1-oxide], the IC50 amounted to 28 nM in assay [1] (setting [3]) and 372 nM in assay [2] (setting [4]).

With `Cc1cc[n+]([O-])c(C)c1-c1ccc(NC(=O)[C@@H](NC(=O)c2ccc3n2CCN(C)C3)C2CCC(F)(F)CC2)cc1` [Example 151, (S)-3-(4-(2-(4,4-difluorocyclohexyl)-2-(2-methyl-1,2,3,4-tetrahydropyrrolo[1,2-a]pyrazine-6-carboxamido)acetamido)phenyl)-2,4-dimethylpyridine 1-oxide], the IC50 stood at 57 nM in assay [1] (setting [5]) and 260 nM in assay [2] (setting [6]).

`Cc1c(-c2ccc(NC(=O)C(NC(=O)c3ccnn3C)[C@H]3C[C@@H]4C[C@@H]4C3)cc2F)c(Cl)cc[n+]1[O-]` (stereo partly drawn) [Example 225, 3-(4-(2-((1R,3s,5S)-bicyclo[3.1.0]hexan-3-yl)-2-(1-methyl-1H-pyrazole-5-carboxamido)acetamido)-2-fluorophenyl)-4-chloro-2-methylpyridine 1-oxide]: the IC50 in assay [1] (IL17AA + TNF IC50 IL-6, NHDF cells, IL-17AA 30 pM + TNF-α 6 pM) was 12 nM; in assay [2] (IL17AA FRET/ IL17Rawt IC50, TR-FRET, 5 nM IL-17A, 30 nM IL-17RA), 29 nM.

Consider `Cc1cc[n+]([O-])c(C)c1-c1ccc(NC(=O)[C@H](Cc2ccccc2F)NC(=O)c2conc2C)cc1` [Example 72, (S)-3-(4-(3-(2-fluorophenyl)-2-(3-methylisoxazole-4-carboxamido)propanamido)phenyl)-2,4-dimethylpyridine 1-oxide], for which the results for the IC50 in assay [1] (setting [3]) and in assay [2] (setting [4]) were 3400 nM and 454 nM, respectively.

For `Cc1c(-c2ccc(NC(=O)C(NC(=O)c3ccnn3C)C3CCC(C)CC3)cc2)c(Cl)cc[n+]1[O-]` [Example 46, 4-chloro-2-methyl-3-(4-((S)-2-(1-methyl-1H-pyrazole-5-carboxamido)-2-((1r,4S)-4-methylcyclohexyl)acetamido)phenyl)pyridine 1-oxide], the IC50 is 4 nM in assay [1] (setting [3]) and 18 nM in assay [2] (setting [4]).
